Assay results: the Deep4Chem optical property database
Several values for one entry are separate records, joined by “and”; a condition that tells them apart may be missing. Equal entries are not always repeated.

Test: solvent given as SMILES

With `OCCSc1cccc2[n+]1[B-](F)(F)n1c(c3cccc4cccc1c43)=N2` the absorption maximum (in C1CCOC1) was 485 nm, the absorption maximum (in CC#N) was 480 nm and the absorption maximum (in CCCCCC) was 484 nm. The absorption maximum (in Cc1ccccc1) was 487 nm and the absorption maximum (in ClCCl) was 482 nm and 453 nm.
Work on `Cc1nc2cc(/C=C/c3ccc(N(C)C)cc3)ccc2nc1-c1ccccc1` yielded an absorption maximum (in C1COCCO1) of 415 nm, an absorption maximum (in CC#N) of 407 nm and an absorption maximum (in ClCCl) of 407 nm.
For `c1ccc2ccccc2c1`, the absorption maximum (in C1CCCCC1) was 291.46 nm and 286 nm.
For `CC(C)(C)c1c2ccc3[nH]c4c(ccc5c(C(C)(C)C)c(ccc6[nH]c7c(ccc1c7n2)c6C(C)(C)C)nc54)c3C(C)(C)C`, the absorption maximum (in Cc1ccccc1) was 764 nm.
`C[Si](C)(c1cccc2cc3ccccc3cc12)[Si](C)(C)c1cccc2cc3ccccc3cc12` gave an absorption maximum (in C1CCCCC1) of 385.82 nm.
With `CCCCCCCCCCOc1cc(OCCCCCCCCCC)cc(C2=C3C(C)=CC(/C=C/c4ccc(OC)cc4)=[N+]3[B-](F)(F)n3c(/C=C/c4ccc(OC)cc4)cc(C=Cc4ccc(OC)cc4)c32)c1` the absorption maximum (in ClC(Cl)Cl) was 665 nm.
For `CC(C)(C)c1cccc2c1oc1nc3oc4ccc(-n5c6ccccc6c6ccccc65)cc4c3cc12`, the absorption maximum (in ClC(Cl)Cl) was 348 nm.
With `CC(C)(C)OC(=O)COc1ccc2c(c1)oc(=O)c1c(=O)oc3ccccc3c12` the absorption maximum (in CS(C)=O) was 366 nm and the absorption maximum (in ClCCl) was 365 nm.
Compound `C[Si]1(c2ccccc2)C(c2ccc3c(c2)c2ccccc2n3-c2ccccc2)=C(c2ccccc2)C(c2ccccc2)=C1c1ccc2c(c1)c1ccccc1n2-c1ccccc1` has an absorption maximum (in C1CCOC1) of 404 nm.
Work on `CN(C)c1ccc(C2=CC3=C(c4ccc(C#N)cc4)[C@H]4c5ccccc5[C@]3(S2)c2ccccc24)cc1` yielded an absorption maximum (in ClCCl) of 436 nm.
With `COc1ccc(-n2nc(C#N)c(N3CCN(c4ccccn4)CC3)n2)cc1` the absorption maximum (in CC#N) was 321 nm.
`CC1=C(c2ccc(N(C)C)cc2)C(C)=[N+]2C1=C(c1c(-c3ccccn3)nc3ccccn13)c1c(C)c(-c3ccc(N(C)C)cc3)c(C)n1[B-]2(F)F` gave an absorption maximum (in ClCCl) of 574 nm.
Work on `C1=Cc2ccccc2C(=Cc2ccc(C=C3c4ccccc4C=Cc4ccccc43)cc2)c2ccccc21` yielded an absorption maximum (in C1CCOC1) of 333 nm.
`CN1C(=CC2=C(O)C(=O)C2=C2C(=O)c3ccccc3C2=O)C(C)(C)c2ccccc21` gave an absorption maximum (in CCO) of 492 nm.
`Cc1ccc(-c2sc(/C(C#N)=C/c3ccc(C#N)cc3)nc2-c2ccc(Cl)cc2)cc1` showed an absorption maximum (in CC#N) of 383 nm.
`CC[n+]1c(C=C2C(=O)C(C=C3N(C)c4ccc(Cl)cc4C3(C)C)=C2[O-])sc2ccccc21` showed an absorption maximum (in CO) of 634 nm, an absorption maximum (in ClC(Cl)Cl) of 649 nm and an absorption maximum (in ClCCl) of 650 nm.
`CCCCCCN1C(=O)c2cccc3c(-c4ccc(-c5ccc(-c6ccc7c8c(cccc68)C(=O)N(CCCCCC)C7=O)s5)s4)ccc(c23)C1=O` gave an absorption maximum (in ClC(Cl)Cl) of 428 nm.
`c1ccc2c(c1)Nc1ccccc1B2c1c2ccccc2cc2ccccc12` gave an absorption maximum (in ClCCl) of 394 nm and an absorption maximum (in c1ccccc1) of 394 nm.
`N#Cc1c(N2CCCCC2)cc(-c2ccc(O)cc2)c2c1-c1cccc3cccc-2c13` showed an absorption maximum (in O) of 432 nm.
Compound `C/C=C/c1ccc(OC)cc1` has an absorption maximum (in CCCCCC) of 305 nm.
In the case of `Cc1cc(O)c(C(=O)/C=C/c2ccccc2)c(=O)o1`, the absorption maximum (in CC#N) is reported as 356 nm and the absorption maximum (in ClCCl) is reported as 358 nm.
Compound `c1ccc2c(-n3c4ccccc4c4ccccc43)cccc2c1` has an absorption maximum (in C1CCCCC1) of 321 nm, an absorption maximum (in C1CCOC1) of 323 nm and an absorption maximum (in CC#N) of 322 nm. The absorption maximum (in CCO) was 325 nm, the absorption maximum (in CCOC(C)=O) was 323 nm and the absorption maximum (in CCOCC) was 322 nm. The absorption maximum (in CO) was 323 nm, the absorption maximum (in Cc1ccccc1) was 321 nm and the absorption maximum (in ClC(Cl)Cl) was 324 nm.
`CCn1c2c(-c3cccs3)cc(C(C)(C)C)cc2c2cc(C(C)(C)C)cc(-c3cccs3)c21` gave an absorption maximum (in ClCCl) of 360 nm.
`C1=Cc2nc1c(-c1ccccc1)c1ccc([nH]1)c(-c1ccccc1)c1cc(c(-c3ccccc3)c3ccc([nH]3)c2-c2ccccc2)N=C1` gave an absorption maximum (in ClCCl) of 726 nm.
For `Cc1cccc(C)c1-c1cc2c(C)c3c4cc5nc6ccc7c8c(C)c9cc(-c%10c(C)cccc%10C)c(-c%10c(C)cccc%10C)cc9c(C)c8c7c6nc5cc4c3c(C)c2cc1-c1c(C)cccc1C`, the absorption maximum (in ClC(Cl)Cl) was 487 nm.
For `C(=C\c1nc2c3ccccc3c3ccccc3c2o1)/c1ccccc1`, the absorption maximum (in CC#N) was 364 nm.
`CC1(C)C(/C=C/C=C/C=C/C=C2/N(c3ccc(S(=O)(=O)[O-])cc3)c3ccc(S(=O)(=O)[O-])cc3C2(C)C)=[N+](c2ccc(S(=O)(=O)[O-])cc2)c2ccc(S(=O)(=O)[O-])cc21` gave an absorption maximum (in CO) of 759 nm and an absorption maximum (in O) of 754 nm.
With `CCOC(=O)CN(CC(=O)OCC)c1ccc(-c2cc(-c3ccccn3)nc(-c3ccccn3)c2)cc1` the absorption maximum (in CC#N) was 328 nm, the absorption maximum (in CCOC(C)=O) was 328 nm and the absorption maximum (in CN(C)C=O) was 332 nm. It also gave an absorption maximum (in CS(C)=O) of 336 nm and an absorption maximum (in c1ccccc1) of 328 nm.
Work on `COc1ccc(-c2ccc(-c3ccc(OC)cc3)cc2)cc1` yielded an absorption maximum (in C1CCCCC1) of 293 nm.
With `CCCCc1ccc2c(c1)c1ccc3cccc4c3c1c1c2c2cccc3ccc5c6cc(CCCC)ccc6c4c1c5c32` the absorption maximum (in ClCCl) was 492 nm.
Compound `N#Cc1cccc2[nH]ccc12` has an absorption maximum (in C1COCCO1) of 304.29 nm, an absorption maximum (in CC#N) of 302.81 nm and an absorption maximum (in O) of 305 nm.
Work on `O=C1O/C(=C2/C(=O)Oc3ccccc32)C(O)=C1c1ccccc1` yielded an absorption maximum (in ClC(Cl)Cl) of 388 nm.
Compound `O=C1Nc2ccccc2/C1=C/C(=O)c1ccc(O)cc1` has an absorption maximum (in C1CCCCC1) of 333 nm, an absorption maximum (in C1COCCO1) of 334 nm and an absorption maximum (in CC#N) of 332 nm. For the same compound, the absorption maximum (in CC(C)(C)O) was 336 nm, the absorption maximum (in CC(C)O) was 338 nm and the absorption maximum (in CCCCCC) was 331 nm. The absorption maximum (in CCCCO) was 337 nm, the absorption maximum (in CCOC(C)=O) was 334 nm and the absorption maximum (in CN(C)C=O) was 337 nm. It also gave an absorption maximum (in CO) of 336 nm, an absorption maximum (in ClCCl) of 336 nm and an absorption maximum (in O) of 338 nm.
With `C#CCOc1ccc(/C=C/C2=[N+]3C(=C(c4ccc(N(CC)CC)cc4)c4c(C)cc(/C=C/c5ccc(OCC(=O)OC)cc5)n4[B-]3(F)F)C(C)=C2)cc1` the absorption maximum (in CO) was 640 nm.
Work on `CCN(CC)c1ccc(Nc2cc3oc(-c4ccc(C#N)cc4)nc3c3ccccc23)cc1` yielded an absorption maximum (in C1COCCO1) of 420 nm, an absorption maximum (in CC(C)=O) of 420 nm and an absorption maximum (in ClCCl) of 420 nm. The absorption maximum (in c1ccccc1) was 420 nm.
With `CCOc1ccc2cc(-c3ccc(C)cc3)c(=O)oc2c1` the absorption maximum (in C1CCOC1) was 342 nm, the absorption maximum (in CCCCCC) was 338 nm and the absorption maximum (in CCO) was 344 nm. It also gave an absorption maximum (in CS(C)=O) of 345 nm.
For `c1ccc(-c2ccc(-c3nc(-c4ccccc4)c(N(c4ccccc4)c4ccccc4)[se]3)cc2)cc1`, the absorption maximum (in ClC(Cl)Cl) was 394 nm.
`Cc1c2ccc3c(C)[n+](C)ccc3c2cc[n+]1C` gave an absorption maximum (in CC#N) of 390 nm.
`CN1C(=CC2=C([O-])C(=CC3=[N+](C)c4ccccc4C3(C)C)C2=C2C(=O)NC(=O)NC2=O)C(C)(C)c2ccccc21` gave an absorption maximum (in ClC(Cl)Cl) of 644 nm.
Work on `COc1ccc([C@@H]2C[C@](O)(c3ccccn3)C[C@](O)(c3ccccn3)[C@H]2C(=O)c2ccc(N(c3ccccc3)c3ccccc3)cc2)cc1` yielded an absorption maximum (in C1CCOC1) of 366 nm, an absorption maximum (in CC#N) of 366 nm and an absorption maximum (in CCO) of 366 nm. The absorption maximum (in CCOC(C)=O) was 366 nm, the absorption maximum (in CN(C)C=O) was 358 nm and the absorption maximum (in ClCCl) was 370 nm. For the same compound, the absorption maximum (in c1ccccc1) was 370 nm.
For `C[Si]1(C)O[Si](C)(C)c2cc3nc4ccc([N+](=O)[O-])cc4c(-c4ccccc4)c3cc2[Si](C)(C)O1`, the absorption maximum (in ClCCl) was 376 nm.
`Cc1cc(-n2c3ccccc3c3cc4c(cc32)C2c3ccccc3C4c3ccccc32)ccc1-c1nc(-c2ccccc2)nc(-c2ccccc2)n1` showed an absorption maximum (in Cc1ccccc1) of 367 nm.
Work on `CCCCCCCCC1(CCCCCCCC)c2cc(-c3ccc([N+](=O)[O-])cc3)ccc2-c2ccc(-c3ccc([N+](=O)[O-])cc3)cc21` yielded an absorption maximum (in C1CCCCC1) of 357 nm, an absorption maximum (in CCO) of 368 nm and an absorption maximum (in CN(C)C=O) of 380 nm. For the same compound, the absorption maximum (in CS(C)=O) was 382 nm, the absorption maximum (in Cc1ccccc1) was 365 nm and the absorption maximum (in ClC(Cl)Cl) was 373 nm.
`CC1(C)c2ccccc2N(c2ccccc2)c2ccc(-c3ccc(-c4ccc5c(c4)C(C)(C)c4ccccc4N5c4ccccc4)c4nsnc34)cc21` showed an absorption maximum (in Cc1ccccc1) of 475.42 nm.
Work on `COc1cc(OC)cc(C2=C(c3cc(OC)c(OC)c(OC)c3)C3=Nc4c(-c5cc(OC)c(OC)c(OC)c5)c(-c5cc(OC)cc(OC)c5)c(-c5ccc(C(C)(C)C)cc5)n4[B-](F)(F)[N+]3=C2c2ccc(C(C)(C)C)cc2)c1` yielded an absorption maximum (in Cc1ccccc1) of 674 nm.
